# According to ChEMBL document CHEMBL5257035, “Nucleoside Derived Antibiotics to Fight Microbial Drug Resistance: New Utilities for an Established Class of Drugs?” (J Med Chem, 2016):
# Legend:
# [1] = system: Escherichia coli; assay: Antibacterial activity against Escherichia coli ATCC 25922 assessed as bacterial growth inhibition measured after 48 hrs by microdilution method; type: functional
# [2] = biological target: T1, Phospho-N-acetylmuramoyl-pentapeptide-transferase (Escherichia coli K-12, UniProt P0A6W3); assay: Inhibition of MraY in Escherichia coli K12
# T1 sequence (P0A6W3 whole entry): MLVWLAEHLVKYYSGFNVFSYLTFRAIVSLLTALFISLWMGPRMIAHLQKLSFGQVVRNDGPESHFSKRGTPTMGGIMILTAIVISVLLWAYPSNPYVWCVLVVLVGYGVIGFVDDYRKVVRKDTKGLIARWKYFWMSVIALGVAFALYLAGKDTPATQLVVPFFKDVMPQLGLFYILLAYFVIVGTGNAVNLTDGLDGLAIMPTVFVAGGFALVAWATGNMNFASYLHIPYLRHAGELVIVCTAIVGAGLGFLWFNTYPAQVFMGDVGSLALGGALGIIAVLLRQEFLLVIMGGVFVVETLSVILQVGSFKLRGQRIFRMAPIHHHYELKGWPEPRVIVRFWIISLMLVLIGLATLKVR
# [3] = system: Pseudomonas aeruginosa; assay: Antibacterial activity against Pseudomonas aeruginosa assessed as bacterial growth inhibition; type: functional
# [4] = system: Staphylococcus aureus; assay: Antibacterial activity against methicillin-resistant Staphylococcus aureus SR3637 assessed as reduction in bacterial growth inhibition; type: functional
# [5] = system: Cutaneotrichosporon cutaneum; assay: Antifungal activity against Trichosporon cutaneum 3071 assessed as reduction in microbial growth inhibition for 48 hrs by broth microdilution assay; type: functional
# [6] = system: Candida albicans; assay: Antifungal activity against Candida albicans SC5314 assessed as reduction in microbial growth inhibition incubated for 48 hrs by broth microdilution assay; type: functional
# [7] = system: Pseudomonas aeruginosa; assay: Antibacterial activity against Pseudomonas aeruginosa assessed as bacterial growth reduction; type: functional
# [8] = Cytotoxicity against human HepG2 cells assessed as reduction in cell viability incubated for 72 hrs by MTT assay; type: toxicity, cell-based
# [9] = system: Mycolicibacterium smegmatis; assay: Antibacterial activity against Mycobacterium smegmatis SANK75075 assessed as bacterial growth inhibition; type: functional
# [10] = system: Cryptococcus neoformans; assay: Antifungal activity against Cryptococcus neoformans assessed as reduction in fungal growth; type: functional
# [11] = system: Coccidioides immitis; assay: Antifungal activity against Coccidioides immitis assessed as reduction in fungal growth; type: functional
compound,measurement,setting,value
CCCCNC[C@@H](O[C@@H]1O[C@H](CN)[C@@H](O)[C@H]1O)[C@H]1O[C@@H](n2ccc(=O)[nH]c2=O)[C@H](O)[C@@H]1O,MIC,[1],2.5 µg/mL
same,IC50,[2],330 nM
NC(=O)c1ncn([C@@H]2O[C@H](CO)[C@@H](O)[C@H]2O)n1 [RIBAVIRIN],MIC,[3],3 µg/mL
CCCCCCCCCCCCCC[C@@H](NC(=O)C(C)CCCNC(=N)N)C(=O)NC[C@@H]1CC[C@H]2[C@@H](C(=O)N1)[C@H]([C@H]1O[C@@H](n3ccc(=O)[nH]c3=O)[C@H](O)[C@@H]1O)ON2CCCN (stereo partly drawn),MIC,[4],8 µg/mL
CCCCCCCCCNC[C@@H](O[C@@H]1O[C@H](CN)[C@@H](O)[C@H]1O)[C@H]1O[C@@H](n2ccc(=O)[nH]c2=O)[C@H](O)[C@@H]1O,MIC,[1],2.5 µg/mL
same,IC50,[2],330 nM
NC(=O)OC[C@H](O)[C@@H](O)[C@H](N)C(=O)N[C@H](C(=O)NC(CCC(=O)O)C(=O)O)[C@H]1O[C@@H](n2cc(C=O)[nH]c2=O)[C@H](O)[C@@H]1O (stereo partly drawn),MIC,[5],256 µg/mL
same,MIC,[6],> 256 µg/mL
C[C@H](N)C(=O)N(C)[C@@H](C)[C@H](NC(=O)[C@H](Cc1ccccc1)NC(=O)N[C@@H](Cc1c[nH]c2ccccc12)C(=O)O)C(=O)NCC1C[C@@H](O)[C@H](n2ccc(=O)[nH]c2=O)O1 (stereo partly drawn),MIC,[7],16 µg/mL
C[C@@H]([C@H](NC(=O)[C@H](Cc1ccccc1)NC(=O)N[C@@H](Cc1c[nH]c2ccccc12)C(=O)O)C(=O)NC[C@H]1C[C@@H](O)[C@H](n2ccc(=O)[nH]c2=O)O1)N(C)C(=O)CN,MIC,[7],8 µg/mL
CCCCOc1ccc(-c2ccc(CC[C@H](NC(=O)[C@@H](NC(=O)N[C@H](C(=O)O)C(C)C)[C@@H]3CCNC(=N)N3)C(=O)NCCCNC(C(=O)O)[C@H](O[C@@H]3O[C@H](CN)[C@@H](O)[C@H]3O)[C@H]3O[C@@H](n4ccc(=O)[nH]c4=O)[C@H](O)[C@@H]3O)cc2)cc1 (stereo partly drawn),IC50 at 72 h,[8],> 100 µg/mL
CCCCCCCCCCCCCC[C@@H](NC(=O)C(C)CCCNC(=N)N)C(=O)NC[C@@H]1C[C@H]2[C@@H](C(=O)N1)[C@@H]([C@H]1O[C@@H](n3ccc(=O)[nH]c3=O)[C@H](O)[C@@H]1O)ON2CCCN (stereo partly drawn),MIC,[4],8 µg/mL
CO[C@H]1[C@@H](O)[C@H](n2ccc(=O)[nH]c2=O)O[C@@H]1[C@@H](O[C@@H]1OC(C(=O)NCCCSC)=C[C@@H](O)[C@H]1O)C(N)=O,MIC,[9],12.5 µg/mL
C[C@@H]([C@H](NC(=O)[C@H](Cc1ccccc1)NC(=O)N[C@@H](Cc1c[nH]c2ccccc12)C(=O)O)C(=O)NCC1C[C@@H](O)[C@H](n2ccc(=O)[nH]c2=O)O1)N(C)C(=O)[C@@H](N)Cc1ccc(F)cc1 (stereo partly drawn),MIC,[7],16 µg/mL
CC(C)C[C@@H](NC(=O)[C@@H](NC(=O)N[C@H](C(=O)O)C(C)C)[C@@H]1CCNC(=N)N1)C(=O)NCCCNC(C(=O)O)[C@H](O[C@@H]1O[C@H](CN)[C@@H](O)[C@H]1O)[C@H]1O[C@@H](n2ccc(=O)[nH]c2=O)[C@H](O)[C@@H]1O (stereo partly drawn),IC50 at 72 h,[8],> 100 µg/mL
NC(=O)OC[C@H](O)[C@@H](O)[C@H](N)C(=O)N[C@H](C(=O)NC(CCC(=O)O)C(=O)O)[C@H]1O[C@@H](n2ccc(=O)[nH]c2=O)[C@H](O)[C@@H]1O (stereo partly drawn),MIC,[5],256 µg/mL
same,MIC,[6],> 256 µg/mL
CCCCCCCCCCCCCC[C@@H](NC(=O)C(C)CCCNC(=N)N)C(=O)NC[C@@H]1C[C@H]2[C@@H](C(=O)N1)[C@H]([C@H]1O[C@@H](n3ccc(=O)[nH]c3=O)[C@H](O)[C@@H]1O)ON2CCCN (stereo partly drawn),MIC,[4],8 µg/mL
C[C@@H]([C@H](NC(=O)[C@H](Cc1ccccc1)NC(=O)N[C@@H](Cc1c[nH]c2ccccc12)C(=O)O)C(=O)NCC1C[C@@H](O)[C@H](n2ccc(=O)[nH]c2=O)O1)N(C)C(=O)[C@@H](N)Cc1ccc(O)cc1 (stereo partly drawn),MIC,[7],16 µg/mL
N[C@@H](Cc1ccccc1)C(=O)N[C@H](C(=O)O)[C@@H]1C[C@@H](O)[C@@H](O)[C@H](n2ccc(=O)[nH]c2=O)O1,MIC,[10],0.25 µg/mL
same,MIC,[11],0.25 µg/mL
CSCC[C@H](NC(=O)NC(Cc1cccc(O)c1)C(=O)O)C(=O)NC(CN(C)C(=O)[C@@H](N)C(Cc1cccc(O)c1)NCC(=O)O)C(=O)N/C=C1/C[C@@H](O)[C@H](N2CCC(=O)NC2=O)O1 (stereo partly drawn),MIC,[3],1.5 µg/mL
N[C@@H](Cc1ccc(O)cc1)C(=O)N[C@H](C(=O)O)[C@@H]1C[C@@H](O)[C@@H](O)[C@H](n2ccc(=O)[nH]c2=O)O1,MIC,[10],0.25 µg/mL
same,MIC,[11],0.25 µg/mL
CCCCNC(=O)C1=C[C@@H](O)[C@@H](O)[C@H](O[C@@H](C(N)=O)[C@H]2O[C@@H](n3ccc(=O)[nH]c3=O)[C@H](O)[C@@H]2OC)O1,MIC,[9],12.5 µg/mL
CCCCCCCNC[C@@H](O[C@@H]1O[C@H](CN)[C@@H](O)[C@H]1O)[C@H]1O[C@@H](n2ccc(=O)[nH]c2=O)[C@H](O)[C@@H]1O,MIC,[1],2.5 µg/mL
same,IC50,[2],330 nM
CC(C)C[C@H](NC(=O)N[C@@H](Cc1ccc(O)cc1)C(=O)O)C(=O)N[C@H](C(=O)NCC1C[C@@H](O)[C@H](n2ccc(=O)[nH]c2=O)O1)[C@H](C)N(C)C(=O)[C@H](C)N (stereo partly drawn),MIC,[7],16 µg/mL
CCCCCCCCCCCCCC(=O)NC[C@@H]1C[C@H]2[C@@H](C(=O)N1CCCNC(=N)N)[C@@H]([C@H]1O[C@@H](n3ccc(=O)[nH]c3=O)[C@H](O)[C@@H]1O)ON2CCCN,MIC,[4],8 µg/mL
CCCCOc1ccc(-c2ccc(CC[C@@H](NC(=O)[C@@H](NC(=O)N[C@H](C(=O)O)C(C)C)[C@@H]3CCNC(=N)N3)C(=O)NCCCNC(C(=O)O)[C@H](O[C@@H]3O[C@H](CN)[C@@H](O)[C@H]3O)[C@H]3O[C@@H](n4ccc(=O)[nH]c4=O)[C@H](O)[C@@H]3O)cc2)cc1 (stereo partly drawn),IC50 at 72 h,[8],> 100 µg/mL
CCCCCCCCCCCCCCC[C@H](NC(=O)[C@@H](NC(=O)N[C@H](C(=O)O)C(C)C)[C@@H]1CCNC(=N)N1)C(=O)NCCCNC(C(=O)O)[C@H](O[C@@H]1O[C@H](CN)[C@@H](O)[C@H]1O)[C@H]1O[C@@H](n2ccc(=O)[nH]c2=O)[C@H](O)[C@@H]1O (stereo partly drawn),IC50 at 72 h,[8],> 100 µg/mL
CCCCCCCCCCCCCNC[C@@H](O[C@@H]1O[C@H](CN)[C@@H](O)[C@H]1O)[C@H]1O[C@@H](n2ccc(=O)[nH]c2=O)[C@H](O)[C@@H]1O,MIC,[1],2.5 µg/mL
same,IC50,[2],330 nM
CCCCCCCCCCCNC(=O)C1=C[C@@H](O)[C@@H](O)[C@H](O[C@@H](C(N)=O)[C@H]2O[C@@H](n3ccc(=O)[nH]c3=O)[C@H](O)[C@@H]2OC)O1,MIC,[9],12.5 µg/mL
C/C=C1\CN(C(=O)[C@@H](NC(=O)[C@@H](N)[C@H](O)[C@@H](O)COC(N)=O)[C@H]2O[C@@H](n3cc(C=O)[nH]c3=O)[C@H](O)[C@@H]2O)[C@H]1C(=O)O,MIC,[5],0.5 µg/mL
same,MIC,[6],> 256 µg/mL
CSCC[C@H](N)C(=O)N[C@H](C(=O)O)[C@@H]1C[C@@H](O)[C@@H](O)[C@H](n2ccc(=O)[nH]c2=O)O1,MIC,[10],0.25 µg/mL
same,MIC,[11],0.25 µg/mL
CCCCCCCCCNC(=O)C1=C[C@@H](O)[C@@H](O)[C@H](O[C@@H](C(N)=O)[C@H]2O[C@@H](n3ccc(=O)[nH]c3=O)[C@H](O)[C@@H]2OC)O1,MIC,[9],12.5 µg/mL
CO[C@H]1[C@@H](O)[C@H](n2ccc(=O)[nH]c2=O)O[C@@H]1[C@@H](O[C@@H]1OC(C(=O)Nc2ccccc2)=C[C@@H](O)[C@H]1O)C(N)=O,MIC,[9],6.25 µg/mL
CC(C)C[C@H](NC(=O)N[C@@H](Cc1c[nH]c2ccccc12)C(=O)O)C(=O)N[C@H](C(=O)NC[C@H]1C[C@@H](O)[C@H](n2ccc(=O)[nH]c2=O)O1)[C@H](C)N(C)C(=O)CN,MIC,[7],4 µg/mL
CC(C)[C@H](NC(=O)N[C@H](C(=O)N[C@H](CCCCCCCc1ccc(-c2ccccc2)cc1)C(=O)NCCCNC(C(=O)O)[C@H](O[C@@H]1O[C@H](CN)[C@@H](O)[C@H]1O)[C@H]1O[C@@H](n2ccc(=O)[nH]c2=O)[C@H](O)[C@@H]1O)[C@@H]1CCNC(=N)N1)C(=O)O (stereo partly drawn),IC50 at 72 h,[8],> 100 µg/mL
C/C=C1\CN(C(=O)[C@@H](NC(=O)[C@@H](N)[C@H](O)[C@@H](O)COC(N)=O)[C@H]2O[C@@H](n3cc(CO)c(=O)[nH]c3=O)[C@H](O)[C@@H]2O)[C@H]1C(=O)O,MIC,[5],256 µg/mL
same,MIC,[6],> 256 µg/mL
CC(C)[C@H](NC(=O)N[C@H](C(=O)N[C@@H](CCCCCCCc1ccc(-c2ccccc2)cc1)C(=O)NCCCNC(C(=O)O)[C@H](O[C@@H]1O[C@H](CN)[C@@H](O)[C@H]1O)[C@H]1O[C@@H](n2ccc(=O)[nH]c2=O)[C@H](O)[C@@H]1O)[C@@H]1CCNC(=N)N1)C(=O)O (stereo partly drawn),IC50 at 72 h,[8],> 100 µg/mL
CCCCCCCCCCCCCC(=O)NC[C@@H]1C[C@H]2[C@@H](C(=O)N1CCCNC(=N)N)[C@H]([C@H]1O[C@@H](n3ccc(=O)[nH]c3=O)[C@H](O)[C@@H]1O)ON2CCCN,MIC,[4],8 µg/mL
CCCCCCCCCCCNC[C@@H](O[C@@H]1O[C@H](CN)[C@@H](O)[C@H]1O)[C@H]1O[C@@H](n2ccc(=O)[nH]c2=O)[C@H](O)[C@@H]1O,MIC,[1],2.5 µg/mL
same,IC50,[2],330 nM
